In EP0422215B1, “ANTIBACTERIAL AND AN[…]” (THE ROCKEFELLER UNIVERSITY, priority 1989, dated 1990):
Where no end group is shown, it is not given here.

Tests used:
Assay type in all cases: cell-based
S. pyogenes = settings: thin agarose plates, overnight incubation at 30°C
Protocol: (§1) The products of the invention were tested for activity against a variety of test organisms selected to represent a number of different types of pathogens some of them known to be particularly virulent by the inhibition zone assay of Hoffmann et al. (1981) Insect Biochem. 11 537-548. Thin agar or agarose plates (8.5 cm diameter) were prepared with 6 ml of rich medium containing 100 µg/ml of streptomycin and 2 x 10^5 viable cells of a test organism resistant to streptomycin. Wells of […] were punched in the plates and 3 µl of serially diluted samples were placed in the wells. The diameters of the zones of inhibition around the wells were measured after overnight incubation at 30° or 37°C. For each peptide the squares of the zone diameters were plotted against the logarithm of the concentration, and from the slopes and intercepts the lethal concentrations were calculated as described by Hultmark (1983) EMBO J. 2, 571-76 or Hultmark et al. (1982) Eur. J. Biochem. 127 207-217.
(§2) Novel peptides CA(1-8)M(1-18), CA(1-9)M(1-17), CB(1-13)M(1-13), CA(1-17)M(1-9), CA(1-18)M(1-8), M(1-13)CA(1-22) and M(1-13)CA(1-13) were prepared as described above (see Examples 1-6). These novel peptides and CA, CB, and M were tested for activity against a variety of organisms selected to represent a number of different types of pathogens, some of them known to be particularly virulent, by the inhibition zone assay of Hoffmann et al. (1981), Insect Biochem. 11 537-48. As in Examples 1-6, thin agarose plates were prepared with the respective organisms. The diameters of the zones of inhibition were measured after overnight incubation at 30°C. The lethal concentrations were determined as described above (see Examples 1-6; Hultmark et al. articles cited thereat).

E. coli D21 = settings: thin agarose plates, overnight incubation at 30°C
Protocol: as §1, §2

B. subtilis Bsll = settings: overnight incubation at 30°C; for LETHAL CONCENTRATION Bsll + ME: B. subtilis, plates prepared with medium E; for LETHAL CONCENTRATION Bsll: Bsll = B. subtilis, thin agarose plates
Protocol: as §1, §2

P. aeruginosa OT97 = settings: thin agarose plates, overnight incubation at 30°C
Protocol: as §1, §2

S. aureus Cowan I = settings: thin agarose plates, 30°C, * indicates flat concentration dependence
Protocol: as §1, §2

Sheep Red Cells = experiment: lysis of sheep red blood cells (lysis assay or inhibition zone plate assay with SRC); settings: SRC = Sheep Red Cells; ? indicates turbid zone (melittin gives clear zone)
Protocol: These values were obtained by either the lysis assay normally used for melittin or by an adaptation of the antibacterial inhibition zone assay of the above-cited Hultmark et al. articles to plates with sheep red cells (SRC). With respect to the latter, sterile agarose plates contained 6 ml of medium with 1% agarose, 0.9% NaCl and 10% SRC suspended in Alsevers solution. A dilution series of peptide was applied in 3mm wells each loaded with 3 µl of the respective samples. The plates were incubated at 30°C for 24 h, the zones were recorded and LC values calculated as described in the Hultmark et al. articles. Clear zones were recorded after a few hours of incubation and the use of such data gave an LC value of the same order as readings after 24 h. This plate assay is faster and more convenient than the lysis assay normally used for melittin.

[1] = test system: Plasmodium falciparum strain F32 (Tanzania); experiment: inhibition of reinvasion of human red cells by blood stream forms of the malaria parasite; settings: result in words, read from Figure 1
Protocol: The blood stream forms of the malaria parasite Plasmodium falciparum, primarily late trophozoites and early schizonts, were assayed by recording the inhibition of the reinvasion of human red cells by the method of Wahlin, B., et al, (1984) Proc. Natl. Acad. Sci. USA 81, 7912-16. Quadruplicate microcultures of strain F32 (Tanzania) were incubated for 20 hrs at 37°C in a complete tissue culture medium, with or without different concentrations of the peptides to be assayed. After acridine orange staining, the percentage of newly infected red cells was scored in a fluorescence microscope. For each culture 40,000 red cells were analysed for parasitic infection. Duplicate assays were run for CA(1-13)M(1-13).

CC[C@H](C)[C@H](NC(=O)CN)C(=O)NCC(=O)N[C@@H](C)C(=O)N[C@H](C(=O)N[C@@H](CC(C)C)C(=O)N[C@@H](CCCCN)C(=O)N[C@H](C(=O)N[C@@H](CC(C)C)C(=O)N[C@H](C(=O)N[C@H](C(=O)NCC(=O)N[C@@H](CC(C)C)C(=O)N1CCC[C@H]1C(=O)N[C@@H](C)C(=O)N[C@@H](CC(C)C)C(=O)N[C@H](C(=O)N[C@@H](CO)C(=O)N[C@@H](Cc1c[nH]c2ccccc12)C(=O)N[C@H](C(=O)N[C@@H](CCCCN)C(=O)N[C@@H](CCCNC(=N)N)C(=O)N[C@@H](CCCCN)C(=O)N[C@@H](CCCNC(=N)N)C(=O)N[C@@H](CCC(N)=O)C(=O)N[C@@H](CCC(N)=O)C(N)=O)[C@@H](C)CC)[C@@H](C)CC)[C@@H](C)O)[C@@H](C)O)C(C)C)C(C)C [M(1-26), reference compound]
LETHAL CONCENTRATION Strep (S. pyogenes): 0.5 µM | LETHAL CONCENTRATION D21 (E. coli D21): 0.8 µM | LETHAL CONCENTRATION Bsll + ME (B. subtilis Bsll): 0.3 µM | LETHAL CONCENTRATION Bsll (B. subtilis Bsll): 0.2 µM | LETHAL CONCENTRATION OT97 (P. aeruginosa OT97): 3 µM | LETHAL CONCENTRATION Staph (S. aureus Cowan I): 0.2 µM | LETHAL CONCENTRATION SRC (Sheep Red Cells): 4 to 8 µM

H-KWKLFKKIEKVGQNIRDGIIKAGPAVAVVGQATQIAK-NH2 [CA(1-37), reference compound]
activity against Plasmodium falciparum (inhibition of reinvasion, Figure 1) [1]: only negligible activity | LETHAL CONCENTRATION Strep (S. pyogenes): 4 µM | LETHAL CONCENTRATION D21 (E. coli D21): 0.2 µM | LETHAL CONCENTRATION Bsll + ME (B. subtilis Bsll): 200 µM | LETHAL CONCENTRATION Bsll (B. subtilis Bsll): 4 µM | LETHAL CONCENTRATION OT97 (P. aeruginosa OT97): 2 µM | LETHAL CONCENTRATION Staph (S. aureus Cowan I): >200 µM | LETHAL CONCENTRATION SRC (Sheep Red Cells): >200 µM

H-KWKVFKKIEKMGRNIRNGIVKAGPAIAVLGEAKAL-NH2 [CB(1-35), reference compound]
activity against Plasmodium falciparum (inhibition of reinvasion, Figure 1) [1]: about as potent as Mag | LETHAL CONCENTRATION Strep (S. pyogenes): 12 µM | LETHAL CONCENTRATION D21 (E. coli D21): 0.3 µM | LETHAL CONCENTRATION OT97 (P. aeruginosa OT97): 1 µM | LETHAL CONCENTRATION Staph (S. aureus Cowan I): >200 µM

KWKLFKKIEKVGQNIRDGGIGAVLKV-NH2 [CA(1-18)M(1-8)]
LETHAL CONCENTRATION Strep (S. pyogenes): 3 µM | LETHAL CONCENTRATION D21 (E. coli D21): 1 µM | LETHAL CONCENTRATION Bsll + ME (B. subtilis Bsll): 20 µM | LETHAL CONCENTRATION Bsll (B. subtilis Bsll): 4 µM | LETHAL CONCENTRATION OT97 (P. aeruginosa OT97): 15 µM | LETHAL CONCENTRATION Staph (S. aureus Cowan I): >600 µM | LETHAL CONCENTRATION SRC (Sheep Red Cells): >600 µM

KWKLFKKIEKVGQNIRDGIGAVLKVL-NH2 [CA(1-17)M(1-9)]
LETHAL CONCENTRATION Strep (S. pyogenes): 0.2 µM | LETHAL CONCENTRATION D21 (E. coli D21): 0.5 µM | LETHAL CONCENTRATION Bsll + ME (B. subtilis Bsll): 1 µM | LETHAL CONCENTRATION Bsll (B. subtilis Bsll): 0.5 µM | LETHAL CONCENTRATION OT97 (P. aeruginosa OT97): 5 µM | LETHAL CONCENTRATION Staph (S. aureus Cowan I): 4 µM | LETHAL CONCENTRATION SRC (Sheep Red Cells): >600 µM
